Consider seven compounds from patent publication US7655659B2, “Biomimetic of Evodia rutaecarpa fruit extract for amelioration of inflammation” (Applied Genetics Incorporated Dermatics, priority 2004, dated 2010).

The target of one assay is T1, COX-2 (Homo sapiens, UniProt P35354).
T1 construct: purchased Cayman, Ann Arbor, Mich
T1 sequence (P35354 18-604): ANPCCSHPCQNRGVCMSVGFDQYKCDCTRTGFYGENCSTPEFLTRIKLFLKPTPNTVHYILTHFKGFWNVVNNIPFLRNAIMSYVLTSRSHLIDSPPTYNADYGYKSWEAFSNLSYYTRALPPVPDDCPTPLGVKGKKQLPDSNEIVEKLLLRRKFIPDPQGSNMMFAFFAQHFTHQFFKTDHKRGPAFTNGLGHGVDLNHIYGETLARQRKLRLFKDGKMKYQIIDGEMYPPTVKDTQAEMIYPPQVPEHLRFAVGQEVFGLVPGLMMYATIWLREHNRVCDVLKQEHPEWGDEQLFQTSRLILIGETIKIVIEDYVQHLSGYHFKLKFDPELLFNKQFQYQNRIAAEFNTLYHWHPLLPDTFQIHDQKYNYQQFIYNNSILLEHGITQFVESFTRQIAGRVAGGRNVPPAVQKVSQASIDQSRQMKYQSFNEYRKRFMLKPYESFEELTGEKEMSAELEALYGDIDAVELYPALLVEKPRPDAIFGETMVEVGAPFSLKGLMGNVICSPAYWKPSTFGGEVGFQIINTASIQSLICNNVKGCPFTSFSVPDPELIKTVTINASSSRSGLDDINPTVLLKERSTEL
In words: In vitro purified COX-2 enzyme assay (Cayman COX Inhibitor Screening Assay). It is filed as biochemical. The conditions noted are these: for IC50: in vitro. How it is done: It is well known that the major source of inducible prostaglandin release from cells is related to induction of cyclo-oxygenase 2 (COX-2). […] The assay was a commercially available COX Inhibitor Screening Assay (Cayman, Ann Arbor, Mich.) run according to the manufacturer's instructions.
Fractions were analyzed for COX-2 inhibitory activity using the in vitro assay employed in the previous example.

For the next assay, the target named is T2, COX-1 (Ovis aries, UniProt P05979).
T2 sequence (P05979 25-600): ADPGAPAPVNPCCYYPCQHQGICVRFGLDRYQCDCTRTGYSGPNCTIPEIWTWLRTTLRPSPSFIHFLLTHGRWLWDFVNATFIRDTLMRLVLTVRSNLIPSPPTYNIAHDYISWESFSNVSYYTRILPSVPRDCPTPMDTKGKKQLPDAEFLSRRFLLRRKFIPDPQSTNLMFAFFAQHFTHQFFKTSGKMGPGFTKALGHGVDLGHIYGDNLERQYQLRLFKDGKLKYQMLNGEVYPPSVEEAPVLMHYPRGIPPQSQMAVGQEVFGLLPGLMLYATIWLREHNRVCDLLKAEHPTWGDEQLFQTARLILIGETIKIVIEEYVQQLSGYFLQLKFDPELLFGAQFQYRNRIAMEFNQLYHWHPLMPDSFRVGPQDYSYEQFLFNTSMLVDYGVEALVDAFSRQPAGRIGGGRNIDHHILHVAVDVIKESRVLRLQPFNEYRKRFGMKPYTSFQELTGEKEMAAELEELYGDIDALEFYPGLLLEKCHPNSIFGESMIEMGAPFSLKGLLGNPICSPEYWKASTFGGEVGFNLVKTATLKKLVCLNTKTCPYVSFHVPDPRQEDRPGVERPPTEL
The assay is described as follows: In vitro COX-1 enzyme assay.

For a further assay, the system named is HaCaT cells. In words: Inhibition of UVB-induced PGE2 secretion from HaCaT keratinocytes (PGE2 ELISA). In kind it is cell-based. The conditions noted are these: for μg/ml to inhibit 80% of PGE2 secretion: UVB-irradiated HaCaT cells. How it is done:
The HaCaT keratinocyte cell line was cultured in GibcoBRL (Grand Island, N.Y.) D-MEM low glucose medium containing 10% heat inactivated fetal bovine serum, 1% penicillin/streptomycin, 1% L-glutamine, and 1% nonessential amino acids. […] The media was harvested 24 hours after UVB irradiation and analyzed for prostaglandin E2 (PGE2) content using a PGE2 ELISA kit (R & D Systems Catalogue Number DE0100).
The observation that the selectivity of the Evodia rutaecarpa extract (216, see Example 1) was greater than the selectivity of purified BHT (87, Table 3) led us to conclude that there is synergy among the components in inhibiting COX-2. Initial data is consistent with this synergy existing also in the biomimetic of the present invention. The ability of BHT to inhibit PG secretion from UVB-irradiated HaCaT cells was examined by treating cells with BHT immediately after UVB irradiation. The media was harvested 24 hours later and analyzed for PGE2 content using a PGE2 ELISA kit (R & D Systems, Minneapolis, Minn., USA). BHT inhibited UVB-induced PG secretion at 2-20 μg/ml, which is in the range of the IC50 for inhibition of COX-2 in vitro.
The preferred Evodia mixture of Table 4 was examined for its ability to inhibit UVB-induced PGE2 secretion from HaCaT cells. […] This illustrates the discovery that the Evodia rutaecarpa extract contains a compound which blocks this activity and that when the inhibitor is removed the components act synergistically to inhibit UVB-induced PGE2. The preferred Evodia mixture was also effective at inhibiting the COX-2 enzyme in vitro. […] Thus, while the Evodia mixture is useful for inhibiting UVB-induced PGE2 secretion from skin cells when used at 0.01% (v/v) (FIG. 4), for inflammatory conditions mediated exclusively by COX-2, the preferred formulation would contain at least 1% (v/v) Evodia mixture.

The subject of the next assay is human skin. In words: Methyl nicotinate-induced erythema in human skin (Dermaspectrometer). In kind it is in vivo. To be noted: hydrogel lotion; Evodia mixture 1% (v/v) = 60.8 μg/ml actives, bisabolol 61 μg/ml.
Assay [1] has as its system human microvascular endothelial cells (HMVEC). The assay is described as follows: Nitric oxide release from endothelial cells treated with methyl nicotinate (Greiss reagents). In kind it is cell-based. The conditions noted are these: 24 hours; at much lower concentrations than for PGD2 and PGE2 (FIG. 5B). How it is done: (§1) Normal human epidermal keratinocytes (NHEK) and human microvascular endothelial cells (HMVEC) were obtained from a commercial supplier (Cascade Biologics, Portland, Oreg., USA) and cultured according to the manufacturer's recommendations. Methyl nicotinate was made up as a IM stock solution in H2O. The stock solution was diluted to 100 mM in H2O. The 100 mM methyl nicotinate was further diluted to 125 to 1000 μM methyl nicotinate in the cell culture media and the NHEK and HMVEC cells were treated when they had grown to approximately 70% confluency with fresh media containing the methyl nicotinate. After 24 hours of incubation in the methyl nicotinate media, the cultured media was collected. Nitric oxide was measured using the Greiss reagents as described in the Calbiochem colorimetric nitric oxide assay kit (Calbiochem, San Diego, Calif.). PGs in the cell culture media were analyzed using commercially available PGD2 and PGE2 ELISA kits (R & D Systems, Minneapolis, Minn., USA). […] This is in accordance with studies on human skin showing that erythema induced by topical application of methyl nicotinate is mediated by PGD2 (Morrow et al., 1992). […] Since NO is a vasodilatory agent that induces skin erythema, methyl nicotinate can thus induce skin erythema by induction of NO as well as via induction of PGD2 and PGE2. […]

The test system of assay [2] is normal human epidermal keratinocytes (NHEK). In words: Prostaglandin secretion from cultured skin cells treated with methyl nicotinate (PGD2 and PGE2 ELISA). It is filed as cell-based. The conditions noted are these: NHEK and also HMVEC, 125 to 1000 μM. As for the experimental part:
as §1

Where [3] appears, read: read-out: IC50 COX-2 (converted).

Like-named read-outs stand apart in the source and are kept apart here. Where only a bound is given, the exact number is not on record here.

Procedure for human skin: Each application area was demarked by an adjacent label made with a permanent black ink marker. One hour prior to the methyl nicotinate challenge dose, the Evodia mixture lotion was applied liberally to treatment spots. A Carbopol® hydrogel lotion containing no Evodia mixture was used as a vehicle control. […] Immediately thereafter, 10 μL of a 0.14 mg/ml methyl nicotinate solution in water was applied to each treatment spot. Erythema was read 15, 30, 60 and 90 minutes later. […] Results for all the subjects were calculated as change of erythema readings from time zero.
The same protocol as described above was followed with five sites treated twice daily for two weeks. Three sites were treated with test articles of 0.1%, 0.3% and 1.0% (v/v) Evodia mixture in hydrogel lotion, one site was treated with a vehicle control lotion and one site was not treated with either lotion or methyl nicotinate.
A side by side comparison was made between the Evodia mixture and bisabolol, each formulated in a hydrogel lotion, with bisabolol equal to the total amount of actives in the Evodia mixture.

Regarding `Cc1cc(C(C)(C)C)c(O)c(C(C)(C)C)c1` [Butylated Hydroxytoluene (BHT), butylated hydroxytoluene], the IC50 at COX-2 (setting [3]) was 68.1 µM; on COX-1, 5900 µM. Moreover, the “Selectivity COX-1/COX-2” value on COX-2 (ratio of IC50s) was 87. Moreover, the “concentration inhibiting UVB-induced PG secretion” value in the assay on HaCaT cells (cells treated immediately after UVB, media harvested 24 hours later) was 2 to 20 µg/mL.

Regarding `C[C@H]1[C@H](C)CC[C@]2(C(=O)O)CC[C@]3(C)C(=CC[C@@H]4[C@@]5(C)CC[C@H](O)C(C)(C)[C@@H]5CC[C@]43C)[C@H]12` [Ursolic Acid (URA), ursolic acid], on COX-2 (setting [3]), the IC50 is 59.1 µM.

Turning to `CC(C)=CCC[C@](C)(O)C1CC=C(C)CC1` (stereo partly drawn) [bisabolol], in the assay on human skin, the “effect on methyl nicotinate mediated erythema, side by side comparison” value is on record as “ineffective”.

With `C[n+]1c2n(c(=O)c3ccccc31)CCc1c-2[nH]c2ccccc12` [dehydroevodiamine], on COX-2 (read-out: μg/ml to inhibit 50% of COX-2 activity), the IC50 is more than 24.8 µM.

Take `COC(=O)c1cccnc1` [methyl nicotinate]: the “NO secretion from HMVEC” value in assay [1] is “induced”. Also, the PGD2 secretion entry in assay [2] (24 hours (FIG. 5A)) is “induced”. For the same compound, in assay [2] (24 hours (data not shown)), the PGE2 secretion entry is reported as “induced”.

As to `O=c1c2ccccc2nc2n1CCc1c-2[nH]c2ccccc12` [rutaecarpine], in the assay with HaCaT cells, the “μg/ml to inhibit 80% of PGE2 secretion” value is 0.3 µg/mL.

In the case of evodiamine, in the assay on HaCaT cells, the “μg/ml to inhibit 80% of PGE2 secretion” value was 0.3 µg/mL.
